# Results reported in patent publication US20160074400A1, “WNT MODULATORS FOR THE PROTECTION, MITIGATION AND TREATMENT OF RADIATION INJURY” (University of Southern California, priority 2012, published 2016).
# B1: recombinant human Rspo1: purified recombinant human R-spondin1, SEQ ID NO:12, with StrepII tag at the c-terminal end (protein)
# chain: MRLGLCVVALVLSWTHLTISSRGIKGKRQRRISAEGSQACAKGCELCSEVNGCLKCSPKLFILLERNDIRQVGVCLPSCPPGYFDARNPDMNKCIKCKIEHCEACFSHNFCTKCKEGLYLHKGRCYPACPEGSSAANGTMECSSPAQCEMSEWSPWGPCSKKQQLCGFRRGSEERTRRVLHAPVGDHAACSDTKETRRCTVRRVPCPEGQKRRKGGQGRRENANRNLARKESKEAGAGSRRRKGQQQQQQQGTVGPLTSAGPAESAWSHPQFEK
# modifications: C-terminal StrepII tag; human Rspo1 protein variant with SrepII tag (ESAWSHPQFEK) at c-terminus
# Tests used:
# murine intestinal crypts = assay: Small intestinal crypt organoid culture ex vivo, replacement of Rspo1; format: cell-based; settings: FIG. 5
# Method: Small intestinal crypt organoid culture was performed using murine intestinal crypts essentially as described by Ootani et al (Nature Medicine; online publication doi:10.1038/nm.1951, 27 Apr. 2009)), and see also Sato et al (Nature Letters doi:10.1038/nature07935, 2009), both incorporated by reference herein in their entireties.
# [1] = test system: C57BL/6 mice exposed to whole body irradiation (RIGS); assay: Survival (Kaplan-Meier) of mice after lethal whole body irradiation; format: in vivo; settings: 10.4 Gy WBI; AdRspo1 5×10^9 particles/mice 1 hr and 48 hr post-IR, then ICG-001 150 mg/kg 72 hr post-IR; p<0.003
# Method: C57BL/6 mice were treated with recombinant adenovirus expressing human Rspo1, AdRspo1 (5×10^9 particles/mice, 1 hr and 48 hr post-IR), followed by ICG-001 (150 mg/kg of body weight, 72 hr post-IR) after whole body irradiation (WBI) of 9.4-10.4 Gy. […] Expression of mRNA levels of β-Catenin target genes in crypt cells was determined by qRT-PCR.
# To examine whether the purified recombinant hRspo1 could mitigate RIGS when administered along with ICG001, we treated C57BL/6 mice after 10.4 Gy of WBI with the combination of recombinant hRspo1+ICG-001. Specifically, C57BL/6 mice (n=10), exposed to 10.4 Gy single fraction WBI, were treated with hRspo1 (20 mg/kg of body weight s.c.) at 24 hr and 48 hr post-WBI. A separate cohort received sequential treatment of hRspo1 (24 hr and 48 hr post WBI) followed by ICG-001 (150 mg/kg of body weight, 72 hr post-IR).
# [2] = test system: asymmetric divisions in mitotic cells of the ventricular zone; assay: In vivo Par3 distribution assay of asymmetric versus symmetric divisions; parameters: species or system mice; settings: for number of asymmetric divisions: topical or oral administration to pregnant mice, compared to vehicle control
# Source text: For example, Bultje et al. (Bultje R Neuron 63, 189-202, 2009) describe an assay to measure asymmetric distributions in the ventricular zone (vz) to evaluate asymmetric divisions during neurogenesis. Essentially this involves treating the animal (either adult or in utero) for a set period of time with compounds (either p.o., s.c., i.v. or topically) with compounds and then sacrificing the animal and examining the Par3 distribution (e.g., via immunohistochemistry) in mitotic cells vs. DNA distribution (e.g., using DAPI staining) Par3 distributes equally among the two daughter cells during symmetric division and unequally (essentially all in one daughter cell) during asymmetric differentiation.
# [3] = test system: Wnt pathway in 293T cells; assay: TopFlash luciferase β-catenin activation test; format: cell-based; settings: 24 hours in 1% FCS, alone and with Wnt3A, versus commercial Rspo1 from R&D biosystems
# Method: The recombinant cDNA used was SEQ ID NO:11, encoding for recombinant human Rspo1 (SEQ ID NO:12, with StrepII tag). Activity of the purified recombinant Rspo1 was assayed using a β-catenin activation test.
# Briefly, 293T cells were transfected with the reporter vector TopFlash, along with TK Renilla (transfection control) using lipofectamine 2000. After the transfection mixture was removed, cells were incubated in 0.1% FCS o/n, and then stimulated with the different inducers at the indicated concentrations in 1% FCS for 24 hours (FIG. 11).
# [4] = test system: mouse intestinal organoids; assay: Intestinal organoid growth/maintenance assay; format: cell-based
# Method: The recombinant human Rspo1 was also tested in an intestinal organoid growth/maintenance test. Self-renewal of the small intestinal and colonic epithelium is driven by the proliferation of stem cells and their progenitors; and their maintenance and growth in culture (ex-vivo) requires the activation of the Wnt pathway. Given that it is essential, only functional Rspo1 will be able to maintain the growth of intestinal organoids and lead to their maintenance and proliferation. FIGS. 12A and 12B show, according to particular exemplary aspects, testing of functionality of recombinant human Rspo1 in an intestinal organoid growth/maintenance assay.
# Organoids were generated by culturing purified small intestinal crypts in matrigel in Advanced DMEM/F12 supplemented with 500 ng/ml R-spondin 1 [commercial (FIG. 12A) or recombinant (FIG. 12B)], 100 ng/ml EGF and 100 ng/ml Noggin.
molecule,measurement,setting,value
Cc1c[nH]c(-c2cnc(NCCNc3ccc(C#N)cn3)nc2-c2ccc(Cl)cc2Cl)n1 [CHIR],replacement of Rspo1 for maintenance of small intestinal crypt organoid cultures,murine intestinal crypts,can be used to replace (for at least up to 4 days) Rspo1
O=C1[C@H](Cc2ccc(O)cc2)N2C(=O)CCN(C(=O)NCc3ccccc3)[C@H]2CN1Cc1cccc2ccccc12 [ICG-001],mice rescued from radiation lethality,[1],60%
same,number of asymmetric divisions,[2],does not affect the number of asymmetric divisions
same,effect on the defect in asymmetric divisions caused by IQ-1,[2]; treatment with excess ICG-001,corrects the defect in asymmetric divisions caused by IQ-1
[Cl-].[Li+] [LiCl],replacement of Rspo1 for maintenance of small intestinal crypt organoid cultures,murine intestinal crypts,can be used to replace (for at least up to 4 days) Rspo1
"CC(=O)c1ccc(N=NC(C(N)=O)=C2NC(C)(C)Cc3ccccc32)cc1 [IQ-1, reference compound]",number of symmetric divisions,[2]; pregnant mice,increases the number of symmetric divisions
same,number of asymmetric divisions,[2],decreases the number of asymmetric divisions
O=c1cc(-c2ccccc2)oc2ccc3ccccc3c12 [beta napthoflavone],replacement of Rspo1 for maintenance of small intestinal crypt organoid cultures,murine intestinal crypts,can be used to replace (for at least up to 4 days) Rspo1
B1,activation of β-catenin (TopFlash luciferase),[3],"capable of activating β-catenin by itself and synergizing with Wnt (e.g., Wnt3A) as well as, if not better, than the commercially obtained Rspo1"
same,"ability to maintain and induce sprouting (proliferation) of the organoids, versus commercial protein",[4]; 500 ng/ml R-spondin 1,identical to the commercial protein
same,maintenance of growth and proliferation of intestinal organoids,"[4]; 500 ng/ml R-spondin 1, 100 ng/ml EGF, 100 ng/ml Noggin, matrigel",capable of maintaining the growth and proliferation of mouse intestinal organoids in culture
